Assay results taken from US12575568B2, “Composition for promoting the growth of legumes” (CH BIOTECH R&D CO., LTD., priority 2022, dated 2026).

Assays:
Format in all cases: in vivo, Alfalfa (Medicago sativa L.)
alfalfa plants [1] = assay: Example 3 efficacy test on alfalfa with or without Rhizobium inoculation: shoot weight, leaf area, root dry weight; conditions: Day 12 after foliar spray
Protocol: Five (5) seeds were sown in one pot. Alfalfa plants were randomly divided into 6 groups, in which Groups 1 to 3 were not inoculated with Rhizobium, and Groups 4 to 6 were inoculated with Rhizobium. Rhizobium inoculation was the same as described in Example 2. After inoculation, the pots were placed in a phytotron, which was operated at 25/23° C. day/night temperature and on a 16/8 h light/dark cycle. Two (2) weeks after sowing (V2 stage), alfalfa plants were applied with the reagents listed in Table 6 once at a rate of 10 mL/12 pots using a foliar spray treatment. The reagents were applied once in total during the test period. [table] Twelve (12) days after the application of reagents, 12 alfalfa plants from each group (N=12) were randomly selected for phenotype observation, and the shoot fresh weight of the collected samples was measured. Then, the collected samples were dried at 50° C. overnight, and the shoot dry weight was measured. Twelve (12) days after the application of reagents, 6 alfalfa plants from each group (N=6) were randomly selected. All the trifoliate leaves of the selected plants were collected and numbered in sequence from bottom to top. The leaf area of all the trifoliate leaves of each alfalfa plant was measured by a leaf analyzer ([…]2400, Regent Instruments Inc.). Twelve (12) days after the application of reagents, 4 alfalfa plants from each group (N=4) were randomly selected. The collected samples were dried at 50° C. overnight, and then the root dry weight was measured. Average and standard error (SE) of each group were calculated.

alfalfa plants [2] = assay: Example 3 nitrogen content of alfalfa leaves; conditions: 12 days after application; Groups 4-6 Rhizobium inoculated; p<0.001
Protocol: (§1) Alfalfa (Medicago sativa L.) seeds were sown in 3.5-inch pots containing culture medium (peat soil:vermiculite=1:1). Five (5) seeds were sown in one pot. Alfalfa plants were randomly divided into 6 groups, in which Groups 1 to 3 were not inoculated with Rhizobium, and Groups 4 to 6 were inoculated with Rhizobium. Rhizobium inoculation was the same as described in Example 2. After inoculation, the pots were placed in a phytotron, which was operated at 25/23° C. day/night temperature and on a 16/8 h light/dark cycle. Two (2) weeks after sowing (V2 stage), alfalfa plants were applied with the reagents listed in Table 6 once at a rate of 10 mL/12 pots using a foliar spray treatment. The reagents were applied once in total during the test period. [table] Twelve (12) days after the application of reagents, 4 alfalfa plants from each group (N=4) were randomly selected. The first to fifth trifoliate leaves of the selected plants were collected, air-dried at 50° C. overnight and then ground into powder. […] Average and standard error (SE) of each group were calculated.

[3] = tested on: glutamate synthase (GOGAT); assay: Example 3 activity of glutamate synthase (GOGAT) of alfalfa leaves; conditions: 12 days after application; Groups 2-3 without, Groups 4-6 with Rhizobium
Protocol: as §1, with “third” for “first to fifth”, “collected to determine GOGAT activity by the following method. […] The GOGAT activity is determined by NADH reduction through measuring fluorescence intensity” for “collected, air-dried”, “excitation/emission wavelengths of 340/445 nm.” for “50° C. overnight and then ground into powder.”

[4] = Groups 2-3 without, Groups 4-6 with Rhizobium
[5] = Groups 4-6 Rhizobium inoculated
[6] = Groups 4-6 Rhizobium inoculated, Group 1 no Rhizobium, no actives

Question: Which results are given for `NCCCC(=O)O` [Group 4, γ-aminobutyric acid (GABA)]?
Answer: Leaf Area, Sum of trifoliate leaves (alfalfa plants [1]; [4]): 6.27 cm^2/plant; Leaf Area, trifoliate leaf number 1 (alfalfa plants [1]; [4]): 0.90 cm^2/plant; Leaf Area, trifoliate leaf number 2 (alfalfa plants [1]; [4]): 1.03 cm^2/plant; Leaf Area, trifoliate leaf number 3 (alfalfa plants [1]; [4]): 1.01 cm^2/plant; Leaf Area, trifoliate leaf number 4 (alfalfa plants [1]; [4]): 0.85 cm^2/plant; Leaf Area, trifoliate leaf number 5 (alfalfa plants [1]; [4]): 0.87 cm^2/plant; Leaf Area, trifoliate leaf number 6 (alfalfa plants [1]; [4]): 0.93 cm^2/plant; Leaf Area, trifoliate leaf number 7 (alfalfa plants [1]; [4]): 0.52 cm^2/plant; Leaf Area, trifoliate leaf number 8 (alfalfa plants [1]; [4]): 0.17 cm^2/plant; Leaf Area, trifoliate leaf number 9 (alfalfa plants [1]; [4]): 0.00 cm^2/plant; increase of leaf area compared with Group 1 (alfalfa plants [1]; [4]): 64%; root dry weights compared with Group 1 (alfalfa plants [1]; [4]): higher; increase of trifoliate leaves compared with Group 1 (alfalfa plants [1]; [5]): 2 trifoliate leaves; plant height compared with Group 1 (words, FIG. 12) (alfalfa plants [1]; [5]): higher; increase of shoot dry weight compared with Group 1 (alfalfa plants [1]; [6]): 52.9%; increase of shoot fresh weight compared with Group 1 (alfalfa plants [1]; [6]): 66.5%; increase of nitrogen content in the leaves compared with Group 1 (alfalfa plants [2]): 115.8%; increase of GOGAT activity in the leaves compared with Group 1 [3]: 13.5%
